The test system of one assay is hypoxia signaling genes. Briefly: Real-time qPCR of human hypoxia signaling gene panel in ME-180 cells. Particulars: 1% O2, 18 h, at IC50 concentration of HIF-1α–NanoLuc assay.
The test system of a further assay is ME-180 cells. Kind of assay: Cancer cell proliferation assay, ME-180. It is filed as cell-based. Particulars: Homo sapiens, ME-180; Table 1; 72 h; read-out: 72-hr Viability ME-180 IC50.
The next assay concerns HIF-1α–NanoLuc. Briefly: HIF-1α–NanoLuc reporter gene assay (qHTS primary and confirmatory screens). It is filed as cell-based, human. As to conditions: Homo sapiens.
The subject of assay [1] is co-cultures of human aortic endothelial cells and human mesenchymal stem cells. Briefly: In vitro angiogenesis co-culture assay (tube formation). As to conditions: three-day exposure; for IC50 / Emax: Homo sapiens, 72 h, Table 1; for IC50: tube formation; for Emax: percentage of inhibition compared to DMSO controls, read-out: Angiogenesis Efficacy (converted); for Angiogenesis inhibition, result in words: co-culture assay. The format is cell-based.
Description: Cells were seeded in a 96-well clear bottom plate (Corning) for five hours and exposed to test compounds for three days at 37°C, 5% CO2.

For another assay, the system named is HRE–bla ME-180 cells. Kind of assay: Viability (BLA): CellTiter-Glo counter screen in HRE–bla cells. It is filed as cell-based, human. Particulars: for IC50: Homo sapiens, ME-180, Table S7, confirmatory screen, 1% O2, 18 h; for Viability (BLA) confirmatory IC50: Table S7, 1% O2, 18 h. (Cellular ATP, detected with luciferase, serves as a proxy for viable cell number.)

The subject of assay [2] is hypoxia response element-beta-lactamase (HRE–bla). Kind of assay: HRE-bla reporter gene assay in ME-180 cells. The format is cell-based, human. Particulars: for Emax / IC50: Homo sapiens; for Emax: ME-180; for IC50: read-out: HRE-bla IC50. For orientation: In a reporter assay the amount or activity of a reporter protein is the signal.
Description: (§1) Cell culture of HRE–bla ME-180 cells (Cat. No. K1644, Life Technologies) and HRE–bla assay were conducted according to a reported protocol [6]. […] The fluorescence signals (460/25 nm and 530/20 nm) of CCF4 and luminescence signals of CellTiter-Glo were acquired on an Envision and a ViewLux plate readers (Perkin Elmer), respectively.
Another assay deals with HCT116 cells. Briefly: Cancer cell proliferation assay, HCT116. Particulars: Table 1, 72 h; for IC50: Homo sapiens, HCT-116, read-out: 72-hr Viability HCT116 IC50. It is filed as cell-based, human.
Assay [3] deals with HIF-1α–NanoLuc HCT116 cells. Briefly: Viability (Luc): CellTiter-Glo counter screen in HIF-1α–NanoLuc cells. Particulars: Table S7, 1% O2, 18 h. It is filed as cell-based, human.
Where [4] appears, read: HCT-116, Table 1, HCT116 reporter cells, hypoxia 1% O2, 18 h, confirmatory, read-out: HIF-1α-NanoLuc IC50.
Setting [5] is: Table 1, percentage of inhibition compared to DMSO controls, read-out: HIF-1α-NanoLuc Efficacy (converted).
The mark [6] stands for this setting: Table S2, validation, read-out: Pathway inhibitors (validation) HIF-1α–NanoLuc Activity Efficacy.
[7] abbreviates: Table S7, confirmatory screen, read-out: HIF-1α–NanoLuc confirmatory Efficacy.
The mark [8] stands for this setting: Table 1, percentage of inhibition compared to DMSO controls, read-out: HRE-bla Efficacy (converted).
[9] abbreviates: Table S7, confirmatory screen, read-out: HRE–bla confirmatory Efficacy.
The mark [10] stands for this setting: Table 1, ME-180 cells, 1% O2, 18 h.
The mark [11] stands for this setting: Table S2, primary screen, read-out: Pathway inhibitors (primary screen) HIF-1α–NanoLuc Activity Efficacy.
Where [12] appears, read: Table S2, primary screen, read-out: Pathway inhibitors (primary screen) HIF-1α–NanoLuc Activity IC50.
The mark [13] stands for this setting: Table S7, primary screen, read-out: HIF-1α–NanoLuc primary Efficacy.

Read-outs that look alike come from different tables or passages of the source.

The IC50 is the concentration that gives 50% inhibition.

Description for HRE–bla ME-180 cells: as §1

Turning to `Oc1cccc(-c2nc(N3CCOCC3)c3oc4ncccc4c3n2)c1` [PI-103], the “Effect on expression of hypoxia-induced genes, in words” value in the assay on hypoxia signaling genes is “decreased the expression levels of all hypoxia-induced genes tested”. For the same molecule, the IC50 stood at 370 ± 20 nM with ME-180 cells; 920 ± 60 nM with HIF-1α–NanoLuc (setting [4]); 2770 ± 40 nM in the assay with HIF-1α–NanoLuc (Table S2, validation, read-out: Pathway inhibitors (validation) HIF-1α–NanoLuc Activity IC50); 320 ± 90 nM in assay [1]; 770 ± 250 nM with HRE–bla ME-180 cells; 150 ± 20 nM in assay [2] (setting [10]). The Emax in the assay on HIF-1α–NanoLuc (setting [5]) is 57%; in the assay on HIF-1α–NanoLuc (setting [6]) it was 80 ± 3%; in the assay on HIF-1α–NanoLuc (setting [7]) it was 57 ± 10%; in assay [1], 80%; in assay [2] (setting [8]) it was 62%; in assay [2] (setting [9]) it was 62 ± 3%. For the same molecule, in assay [1], the “Angiogenesis inhibition, result in words” value was “submicromolar concentrations”. Besides, the “72-hr Viability HCT116 IC50” value with HCT116 cells is recorded as “Inactive”. The “Viability (Luc) confirmatory IC50” value in assay [3] is “Inactive”.

For the molecule `Cn1cnc2c(F)c(Nc3ccc(Br)cc3Cl)c(C(=O)NOCCO)cc21` [Selumetinib], the half-maximal inhibitory concentration (IC50) was 270 ± 60 nM with ME-180 cells; 1490 ± 1300 nM with HIF-1α–NanoLuc (setting [4]); 40 nM in the assay with HIF-1α–NanoLuc (setting [12]); 10 nM in assay [1]; 22800 ± 3890 nM with HCT116 cells. Moreover, the Emax is 48% in the assay with HIF-1α–NanoLuc (setting [5]); 62% in the assay on HIF-1α–NanoLuc (setting [11]); 48 ± 10% in the assay on HIF-1α–NanoLuc (setting [6]); 48 ± 10% in the assay with HIF-1α–NanoLuc (setting [7]); 62% in the assay on HIF-1α–NanoLuc (setting [13]); 92% in assay [1]. Further, the “Viability (BLA) confirmatory IC50” value in the assay on HRE–bla ME-180 cells is reported as “Inactive”. For the same molecule, the “HRE-bla IC50” value in assay [2] (setting [10]) was “Inactive”. The “Viability (Luc) confirmatory IC50” value in assay [3] was “Inactive”.

In the case of `O=C1c2c(O)ccc(O)c2C(=O)c2c(NCCNCCO)ccc(NCCNCCO)c21` [Mitoxantrone], the IC50 in the assay on ME-180 cells amounted to 110 ± 30 nM; with HIF-1α–NanoLuc (setting [4]), 7650 ± 2130 nM; in the assay on HIF-1α–NanoLuc (Table S1, primary screen, hypoxia 1% O2, 18 h, read-out: IC50 (primary screen, HIF-1α–NanoLuc assay)) it was 2380 nM; in the assay on HIF-1α–NanoLuc (setting [12]), 2370 nM; in assay [1] it was 4 ± 3 nM; in the assay with HRE–bla ME-180 cells it was 13400 ± 4400 nM. The IC50 worked out at 860 ± 520 nM in assay [2] (setting [10]) and 11100 ± 4790 nM with HCT116 cells. In addition, the Emax in the assay with HIF-1α–NanoLuc (setting [5]) is 110%; in the assay with HIF-1α–NanoLuc (Table S1, primary screen, read-out: Efficacy (primary screen, HIF-1α–NanoLuc assay)), 80%; with HIF-1α–NanoLuc (setting [11]), 80%; in the assay on HIF-1α–NanoLuc (setting [6]), 110 ± 5%; in the assay on HIF-1α–NanoLuc (setting [7]), 110 ± 5%; in the assay on HIF-1α–NanoLuc (setting [13]) it was 80%. The Emax in assay [1] is 101%; in assay [2] (setting [8]), 99%; in assay [2] (setting [9]) it was 99 ± 10%. Further, the “Viability (Luc) confirmatory IC50” value in assay [3] is “Inactive”.

Regarding `COc1c(C)c2c(c(O)c1C/C=C(\C)CCC(=O)OCCN1CCOCC1)C(=O)OC2` [Mycophenolate mofetil], the IC50 was found to be 1820 ± 740 nM in the assay with ME-180 cells; 1580 ± 450 nM with HIF-1α–NanoLuc (setting [4]); 330 nM with HIF-1α–NanoLuc (Table S7, primary screen, read-out: HIF-1α–NanoLuc primary IC50); 110 ± 60 nM in assay [1]; 530 nM in the assay on HRE–bla ME-180 cells; 210 ± 50 nM in assay [2] (setting [10]). Also, the Emax was 59% with HIF-1α–NanoLuc (setting [5]); 59 ± 5% in the assay on HIF-1α–NanoLuc (setting [7]); 61% with HIF-1α–NanoLuc (setting [13]); 93% in assay [1]; 58% in assay [2] (setting [8]); 58 ± 4% in assay [2] (setting [9]). The “Angiogenesis inhibition, result in words” value in assay [1] is listed as “submicromolar concentrations”. Besides, in the assay on HCT116 cells, the “72-hr Viability HCT116 IC50” value is listed as “Inactive”. For the same molecule, the “Viability (Luc) confirmatory IC50” value in assay [3] is “Inactive”.

Consider `CC(=O)Nc1cccc(-n2c(=O)n(C3CC3)c(=O)c3c(Nc4ccc(I)cc4F)n(C)c(=O)c(C)c32)c1` [Trametinib], for which the “Effect on expression of hypoxia-induced genes, in words” value with hypoxia signaling genes was “decreased expression levels of HIF1A and many hypoxia responsive genes”. Besides, the half-inhibitory concentration (IC50) came out at 60 ± 20 nM in the assay on ME-180 cells; 2980 ± 4640 nM in the assay on HIF-1α–NanoLuc (setting [4]); 0.05 ± 0.05 nM in assay [1]; 20500 ± 8110 nM in assay [2] (setting [10]); 640 ± 110 nM with HCT116 cells. In addition, the Emax with HIF-1α–NanoLuc (setting [5]) was 69%; in the assay on HIF-1α–NanoLuc (setting [6]), 69 ± 5%; in the assay on HIF-1α–NanoLuc (setting [7]), 69 ± 5%; in assay [1], 89%; in assay [2] (setting [8]), 53%; in assay [2] (setting [9]), 53 ± 9%. Further, in assay [1], the “Angiogenesis inhibition, result in words” value is “picomolar IC50 value”. Also, the “Viability (BLA) confirmatory IC50” value in the assay with HRE–bla ME-180 cells is “Inactive”. In addition, the “Viability (Luc) confirmatory IC50” value in assay [3] was “Inactive”.
